Data on 22 compounds can be found in US20260325533A1, “CDK INHIBITOR COMPOUNDS” (ALEKSIA THERAPEUTICS, INC., priority 2023, published 2026).

The target of one test is CDK2/CCNE1 (Homo sapiens, UniProt P24941). As to the kind of experiment: CDK2 homogeneous time-resolved fluorescence (HTRF) kinase assay. The note with it: CDK2/CCNE. The format is biochemical. Here is the method:
(§1) A CDK homogeneous time-resolved fluorescence (HTRF) assay was used to assess the potency of the compounds described herein.
(§2) To an untreated 384-well microtiter plate (ProxiPlate) was added 100 nL 100×test compound in DMSO and 5 μL 2×CDK enzyme in assay buffer (50 mM HEPES, 1 mM EGTA, 10 mM MgCl2, 0.01% Tween 20, 2 mM DTT). The plate was centrifuged at 800 RPM for 1 min then incubated for 20 min at 23 °C. 2.5 μL per well of 4×ATP and 2.5 μL 4×ULight™-eIF4E-binding protein 1 (Thr37/46) Peptide substrate were added to all wells. After addition, the plates were centrifuged at 800 RPM for 1 min. The plates were incubated at 23 °C for 60 min. 5 μL per well 4×EDTA solution were added to each well to stop the reaction. 5 μL 4×LANCE Ultra Europium-anti-phospho-eIF4E-binding protein 1 (Thr37/46) antibody were added to each well and the plate was centrifuged for 1 min at 800 RPM. The plate was incubated for 60 min at 23 °C. Fluorescence was read at 340 nm excitation and 665 nm emission on an En Vision 2105 fluorescence reader. The final concentrations of reagents in the activity assay were 3 nM CDK2/CCNE1, 1 mM ATP, 50 nM ULight™-eIF4E-binding protein 1 (Thr37/46) Peptide substrate, 1% DMSO, 10 mM EDTA, and 2 nM LANCE Ultra Europium-anti-phospho-eIF4E-binding protein 1 (Thr37/46).
(§3) Dose-response titrations were conducted by using an 11-point, half-logarithmic serial dilution scheme typically starting at 10 μM. Signals were reported as fluorescence units at 665 nm or the ratio of fluorescence units at 665 nm/fluorescence units at 615 nm. Signals are referred to below as “Lance signals”.
(§4) Using this assay, the IC50 values of example compounds were determined. Table 3 illustrates the IC50 for various Example compounds of Formula IA. Table 4 illustrates the IC50 for various other Example compounds of Formula I. ND=not determined.
For orientation: TR-FRET usually uses a lanthanide donor and a delayed reading to cut background.

For another test, the target named is CDK1/CCNB1 (Homo sapiens, UniProt P06493). As to the kind of experiment: CDK1 homogeneous time-resolved fluorescence (HTRF) kinase assay. The format is biochemical. The note with it: CDK1/CCNB. Here is the method: as §1
Sequence of CDK1/CCNB1 (P06493 whole entry): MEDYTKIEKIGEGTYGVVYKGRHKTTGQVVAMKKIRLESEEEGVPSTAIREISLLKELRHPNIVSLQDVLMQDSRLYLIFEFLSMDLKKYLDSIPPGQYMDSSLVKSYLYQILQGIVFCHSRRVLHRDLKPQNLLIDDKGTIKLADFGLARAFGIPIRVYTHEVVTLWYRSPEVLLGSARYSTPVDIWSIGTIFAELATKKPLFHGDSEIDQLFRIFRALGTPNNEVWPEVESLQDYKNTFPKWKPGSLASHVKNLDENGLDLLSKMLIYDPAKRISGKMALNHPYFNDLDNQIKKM
Sequence of CDK1/CCNB1 (P14635 whole entry partner): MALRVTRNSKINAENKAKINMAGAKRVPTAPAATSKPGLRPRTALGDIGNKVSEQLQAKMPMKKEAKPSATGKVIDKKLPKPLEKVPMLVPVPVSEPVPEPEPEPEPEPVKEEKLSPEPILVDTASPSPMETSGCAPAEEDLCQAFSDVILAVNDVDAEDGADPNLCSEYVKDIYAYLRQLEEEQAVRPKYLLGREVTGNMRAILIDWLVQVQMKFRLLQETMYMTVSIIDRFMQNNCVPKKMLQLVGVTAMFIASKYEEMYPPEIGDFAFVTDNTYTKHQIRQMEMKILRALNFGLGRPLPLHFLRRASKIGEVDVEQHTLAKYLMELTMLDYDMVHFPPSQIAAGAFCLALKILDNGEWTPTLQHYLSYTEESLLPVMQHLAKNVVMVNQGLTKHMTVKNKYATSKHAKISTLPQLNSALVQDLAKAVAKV
as §2, with “were 0.5” for “were 3”, “nM CDK1/CCNB1,” for “nM CDK2/CCNE1,”
as §3, §4

[1] abbreviates: 25-250 nM marked x, read-out: CDK2/CCNE IC50 25-250 nM.
Where [2] appears, read: >250 nM marked x, read-out: CDK1/CCNB IC50 >250 nM.
The mark [3] stands for this setting: <25 nM, read-out: CDK2/CCNE IC50 <25 nM.
Where [4] appears, read: 25-250 nM marked x, read-out: CDK1/CCNB IC50 25-250 nM.

Like-named read-outs stand apart in the source and are kept apart here.

As for `CS(=O)(=O)N1CCC(Nc2cc3c(N4CCCCC4CO)nccc3cn2)CC1` (racemic) [Ex 56, (1-(7-((1-(methylsulfonyl)piperidin-4-yl)amino)-2,6-naphthyridin-1-yl)piperidin-2-yl)methanol], the IC50 was 25 to 250 nM on CDK2/CCNE1 (setting [1]) and > 250 nM on CDK1/CCNB1 (setting [2]).

With `CS(=O)(=O)N1CCC(Nc2cc3c(N4CCCC4CO)nccc3cn2)CC1` (racemic) [Ex 57, (1-(7-((1-(methylsulfonyl)piperidin-4-yl)amino)-2,6-naphthyridin-1-yl)pyrrolidin-2-yl)methanol], the IC50 on CDK2/CCNE1 (setting [1]) is 25 to 250 nM; at CDK1/CCNB1 (setting [2]), > 250 nM.

Consider `CS(=O)(=O)N1CCC(Nc2cc3c(C(=O)N4CCC(C#N)C4)nccc3cn2)CC1` (racemic) [Ex 94, 1-(7-((1-(methylsulfonyl)piperidin-4-yl)amino)-2,6-naphthyridine-1-carbonyl)pyrrolidine-3-carbonitrile], for which the IC50 on CDK2/CCNE1 (setting [1]) was 25 to 250 nM; at CDK1/CCNB1 (setting [2]), > 250 nM.

As for `CS(=O)(=O)N1CCC(Nc2cc3c(C(=O)N4CCCC(C#N)C4)nccc3cn2)CC1` (racemic) [Ex 98, 1-(7-((1-(methylsulfonyl)piperidin-4-yl)amino)-2,6-naphthyridine-1-carbonyl)piperidine-3-carbonitrile], the IC50 at CDK2/CCNE1 (setting [1]) was 25 to 250 nM; on CDK1/CCNB1 (setting [2]), > 250 nM.

For `C=CS(=O)(=O)N1CCC(Nc2cc3c(N4CCC(OC(C)=O)C4)nccc3cn2)CC1` (racemic) [Ex 104, 1-(7-((1-(vinylsulfonyl)piperidin-4-yl)amino)-2,6-naphthyridin-1-yl)pyrrolidin-3-yl acetate], the values for the IC50 on CDK2/CCNE1 (setting [1]) and on CDK1/CCNB1 (setting [2]) were 25 to 250 nM and > 250 nM, respectively.

For the compound `N#CC1CCN(c2nccc3cnc(Nc4cccc(C(=O)NC5CCSC5=O)c4)cc23)CC1` (racemic) [Ex 112, 3-((5-(4-cyanopiperidin-1-yl)-2,6-naphthyridin-3-yl)amino)-N-(2-oxotetrahydrothiophen-3-yl)benzamide], the IC50 is 25 to 250 nM on CDK2/CCNE1 (setting [1]) and > 250 nM at CDK1/CCNB1 (setting [2]).

Take `C=CS(=O)(=O)c1ccc(Nc2cc3c(N4CCCC(C#N)C4)nccc3cn2)cc1` (racemic) [Ex 123, 1-(7-((4-(vinylsulfonyl)phenyl)amino)-2,6-naphthyridin-1-yl)piperidine-3-carbonitrile]: the IC50 at CDK2/CCNE1 (setting [1]) is 25 to 250 nM; on CDK1/CCNB1 (setting [2]), > 250 nM.

Turning to `CS(=O)(=O)c1ccc(Nc2cc3c(C4CCC(C#N)CC4)nccc3cn2)cc1` (racemic) [Ex 142, 4-(7-((4-(methylsulfonyl)phenyl)amino)-2,6-naphthyridin-1-yl)cyclohexane-1-carbonitrile], the results for the IC50 at CDK2/CCNE1 (setting [3]) and at CDK1/CCNB1 (setting [4]) were < 25 nM and 25 to 250 nM, respectively.

Take `COC(=O)C1CSC(c2nccc3cnc(Nc4ccc(S(C)(=O)=O)cc4)cc23)=N1` (racemic) [Ex 169, methyl 2-(7-((4-(methylsulfonyl)phenyl)amino)-2,6-naphthyridin-1-yl)-4,5-dihydrothiazole-4-carboxylate]: the IC50 is 25 to 250 nM on CDK2/CCNE1 (setting [1]) and > 250 nM at CDK1/CCNB1 (setting [2]).

Regarding `Cc1c(-c2nccc3cnc(Nc4ccc(S(C)(=O)=O)cc4)cc23)ccc2nn(CC3CCNC3)cc12` (racemic) [Ex 195, 5-(4-methyl-2-(pyrrolidin-3-ylmethyl)-2H-indazol-5-yl)-N-(4-(methylsulfonyl)phenyl)-2,6-naphthyridin-3-amine], the IC50 at CDK2/CCNE1 (setting [1]) is 25 to 250 nM; at CDK1/CCNB1 (setting [2]), > 250 nM.

`CS(=O)(=O)c1ccc(Nc2cc3c([C@@H]4CCC[C@H](O)C4)nccc3cn2)cc1` (racemic) [Ex 203, (1S,3R)-3-(7-((4-(methylsulfonyl)phenyl)amino)-2,6-naphthyridin-1-yl)cyclohexan-1-ol (cis, racemic)]: the IC50 was 25 to 250 nM on CDK2/CCNE1 (setting [1]) and > 250 nM on CDK1/CCNB1 (setting [2]).

Take `CS(=O)(=O)c1ccc(Nc2cc3c(C4CCCC(=O)C4)nccc3cn2)cc1` (racemic) [Ex 204, 3-(7-((4-(methylsulfonyl)phenyl)amino)-2,6-naphthyridin-1-yl)cyclohexan-1-one]: the IC50 at CDK2/CCNE1 (setting [1]) is 25 to 250 nM; at CDK1/CCNB1 (setting [2]) it was > 250 nM.

With `C=CS(=O)(=O)c1ccc(Nc2cc3c(N4CCC(O)C4)nccc3cn2)cc1` (racemic) [Ex 211, 1-(7-((4-(vinylsulfonyl)phenyl)amino)-2,6-naphthyridin-1-yl)pyrrolidin-3-ol], the IC50 on CDK2/CCNE1 (setting [1]) is 25 to 250 nM; at CDK1/CCNB1 (setting [2]) it was > 250 nM.

For `CS(=O)(=O)N1CCC(Nc2cc3c(N4CCC(C(N)=O)C4)nccc3cn2)CC1` (racemic) [Ex 260, 1-(7-((1-(methylsulfonyl)piperidin-4-yl)amino)-2,6-naphthyridin-1-yl)pyrrolidine-3-carboxamide], the IC50 was 25 to 250 nM on CDK2/CCNE1 (setting [1]) and > 250 nM on CDK1/CCNB1 (setting [2]).

As for `COc1cc(S(=N)(=O)C2COC2)ccc1Nc1cc2c(C#Cc3ccc4c(c3)NC(=O)C43CC3)nccc2cn1` (single isomer, unassigned) [Ex 324, 6'-((7-((2-methoxy-4-(oxetane-3-sulfonimidoyl)phenyl)amino)-2,6-naphthyridin-1-yl)ethynyl)spiro[cyclopropane-1,3'-indolin]-2'-one], the IC50 on CDK1/CCNB1 (setting [4]) lay in the range of 25 to 250 nM.

`CC(C)S(=N)(=O)c1ccc(Nc2cc3c(C#Cc4ccc5c(c4)NC(=O)C5(C)CO)nccc3cn2)cc1` (single isomer, unassigned) [Ex 331, 3-(hydroxymethyl)-3-methyl-6-((7-((4-(propan-2-ylsulfonimidoyl)phenyl)amino)-2,6-naphthyridin-1-yl)ethynyl)indolin-2-one]: the IC50 on CDK1/CCNB1 (<25 nM, read-out: CDK1/CCNB IC50 <25 nM) is < 25 nM.

Consider `CCC1(CC)C(=O)Nc2cc(C#Cc3nccc4cnc(Nc5ccc(S(=N)(=O)CC)cc5)cc34)ccc21` (single isomer, unassigned) [Ex 428, 3,3-diethyl-6-((7-((4-(ethylsulfonimidoyl)phenyl)amino)-2,6-naphthyridin-1-yl)ethynyl)indolin-2-one], for which, on CDK1/CCNB1 (x = IC50 >250 nM, read-out: CDK1/CCNB IC50 (>250 nM column)), the IC50 was > 250 nM.

For the compound `CCN(C)c1nccc2cnc(NC3CCN(S(C)(=O)=O)CC3)cc12` [Ex 38, N1-ethyl-N1-methyl-N7-(1-(methylsulfonyl)piperidin-4-yl)-2,6-naphthyridine-1,7-diamine], the figures for the IC50 at CDK2/CCNE1 (setting [3]) and on CDK1/CCNB1 (setting [4]) were < 25 nM and 25 to 250 nM, respectively.

In the case of `CS(=O)(=O)N1CCC(Nc2cc3c(N(CO)Cc4ccccc4)nccc3cn2)CC1` [Ex 53, (benzyl(7-((1-(methylsulfonyl)piperidin-4-yl)amino)-2,6-naphthyridin-1-yl)amino)methanol], the IC50 on CDK2/CCNE1 (setting [1]) was 25 to 250 nM; at CDK1/CCNB1 (setting [2]), > 250 nM.

On to `CC1(O)CCN(c2nccc3cnc(NC4CCN(S(C)(=O)=O)CC4)cc23)CC1` [Ex 54, 4-methyl-1-(7-((1-(methylsulfonyl)piperidin-4-yl)amino)-2,6-naphthyridin-1-yl)piperidin-4-ol], for which the IC50 on CDK2/CCNE1 (setting [1]) was 25 to 250 nM; on CDK1/CCNB1 (setting [2]), > 250 nM.

In the case of `CN(Cc1ccccc1)C1CCN(c2nccc3cnc(NC4CCN(S(C)(=O)=O)CC4)cc23)CC1` [Ex 55, 5-(4-(benzyl(methyl)amino)piperidin-1-yl)-N-(1-(methylsulfonyl)piperidin-4-yl)-2,6-naphthyridin-3-amine], the IC50 on CDK2/CCNE1 (setting [1]) was 25 to 250 nM; on CDK1/CCNB1 (setting [2]), > 250 nM.

As to `CS(=O)(=O)N1CCC(Nc2cc3c(C(=O)N4CCCCC4)nccc3cn2)CC1` [Ex 97, (7-((1-(methylsulfonyl)piperidin-4-yl)amino)-2,6-naphthyridin-1-yl)(piperidin-1-yl)methanone], at CDK1/CCNB1 (setting [2]), the IC50 was > 250 nM.
